Assays:
[1] = tested on: monocotyledonous and dicotyledonous weeds; assay: Experiment on weeding effect in post-emergence stage (weeds); format: in vivo; conditions: 600 g/ha active ingredient plus water 450 kg/ha, 3 weeks after application, fresh weight control rate; for Amaranthus retroflexus activity level (growth control rate): fomesafen-resistant Amaranthus retroflexus
Source text: The activity level criteria for plant damage (i.e., growth control rate) are as follows: • Level 5: growth control rate is above 85%; • Level 4: growth control rate is greater than or equal to 60% and less than 85%; • Level 3: growth control rate is greater than or equal to 40% and less than 60%; • Level 2: growth control rate is greater than or equal to 20% and less than 40%; • Level 1: growth control rate is greater than or equal to […]; • Level 0: growth control rate is less than 5%.
(§1) The above growth control rates are fresh weight control rates.
(§2) (1) Experiment on weeding effect in post-emergence stage: monocotyledonous and dicotyledonous weed seeds and major crop seeds (wheat, corn, rice, soybean, cotton, oilseed rape, millet, sorghum) were placed in plastic pots filled with soil, then covered with 0.5-2 cm of soil, allowed to grow in a good greenhouse environment. After 2-3 weeks of sowing, the test plants were treated. The tested compounds of the present invention were respectively dissolved in acetone, then added with Tween 80, diluted with a certain amount of water to obtain a solution with a certain concentration, and sprayed with a spray tower onto the plants. After the application, the plants were cultured for 3 weeks in the greenhouse, and then the experimental results of the weeding were listed in Table 2.

[2] = tested on: major crops (wheat, corn, rice, soybean, cotton, oilseed rape, millet, sorghum); assay: Experiment on weeding effect in post-emergence stage (crops); format: in vivo; conditions: 600 g/ha active ingredient plus water 450 kg/ha, 3 weeks after application; for corn plant damage level (growth control rate): crop corn; for rice plant damage level (growth control rate): crop rice; for soybean plant damage level (growth control rate): crop soybean
Description: as §1
as §2, with “plants.” for “plants. After the application, the plants were cultured for 3 weeks in the greenhouse, and then the experimental results of the weeding were listed in Table 2.”

SMILES	Amaranthus retroflexus activity level (growth control rate) [1]	Digitaria sanguinalis activity level (growth control rate) [1]	Echinochloa crus-galli activity level (growth control rate) [1]	Setaria viridis activity level (growth control rate) [1]	corn plant damage level (growth control rate) [2]	rice plant damage level (growth control rate) [2]	soybean plant damage level (growth control rate) [2]
CC(C)N1C(=O)c2cc(F)cc(I)c2NS1(=O)=O [Compound 145]	4 (Level 4: growth control rate is greater than or equal to 60% and less than 85%)	4 (Level 4: growth control rate is greater than or equal to 60% and less than 85%)	4 (Level 4: growth control rate is greater than or equal to 60% and less than 85%)	5 (Level 5: growth control rate is above 85%)	1 (Level 1: growth control rate is greater than or equal to 500 and less than 200%)	0 (Level 0: growth control rate is less than 5%)	0 (Level 0: growth control rate is less than 5%)
CCN1C(=O)c2cc(F)ccc2NS1(=O)=O [Compound 157]	3 (Level 3: growth control rate is greater than or equal to 40% and less than 60%)	–	–	–	0 (Level 0: growth control rate is less than 5%)	0 (Level 0: growth control rate is less than 5%)	0 (Level 0: growth control rate is less than 5%)
CCCC(C)N1C(=O)c2cc(F)ccc2NS1(=O)=O (stereo not drawn) [Compound 163]	3 (Level 3: growth control rate is greater than or equal to 40% and less than 60%)	–	–	–	–	0 (Level 0: growth control rate is less than 5%)	–
CCOC(=O)OC(C)N1c2ccc(F)cc2C(=O)N(C(C)C)S1(=O)=O (stereo not drawn) [Compound 64]	5 (Level 5: growth control rate is above 85%)	3 (Level 3: growth control rate is greater than or equal to 40% and less than 60%)	4 (Level 4: growth control rate is greater than or equal to 60% and less than 85%)	3 (Level 3: growth control rate is greater than or equal to 40% and less than 60%)	0 (Level 0: growth control rate is less than 5%)	0 (Level 0: growth control rate is less than 5%)	0 (Level 0: growth control rate is less than 5%)
CC(C)N1C(=O)c2cc(F)cc(Cl)c2NS1(=O)=O [Compound 144]	5 (Level 5: growth control rate is above 85%)	5 (Level 5: growth control rate is above 85%)	5 (Level 5: growth control rate is above 85%)	5 (Level 5: growth control rate is above 85%)	1 (Level 1: growth control rate is greater than or equal to 500 and less than 200%)	0 (Level 0: growth control rate is less than 5%)	1 (Level 1: growth control rate is greater than or equal to 500 and less than 200%)
CC(=O)N1c2c(Cl)cc(F)cc2C(=O)N(C(C)C)S1(=O)=O [Compound 152]	5 (Level 5: growth control rate is above 85%)	5 (Level 5: growth control rate is above 85%)	5 (Level 5: growth control rate is above 85%)	5 (Level 5: growth control rate is above 85%)	0 (Level 0: growth control rate is less than 5%)	0 (Level 0: growth control rate is less than 5%)	1 (Level 1: growth control rate is greater than or equal to 500 and less than 200%)
CCCS(=O)(=O)N1c2c(F)cc(F)cc2C(=O)N(C(C)C)S1(=O)=O [Compound 229]	3 (Level 3: growth control rate is greater than or equal to 40% and less than 60%)	–	–	–	1 (Level 1: growth control rate is greater than or equal to 500 and less than 200%)	–	–
CC(C)N1C(=O)c2cc(F)c(F)cc2NS1(=O)=O [Compound 146]	5 (Level 5: growth control rate is above 85%)	4 (Level 4: growth control rate is greater than or equal to 60% and less than 85%)	5 (Level 5: growth control rate is above 85%)	5 (Level 5: growth control rate is above 85%)	1 (Level 1: growth control rate is greater than or equal to 500 and less than 200%)	0 (Level 0: growth control rate is less than 5%)	1 (Level 1: growth control rate is greater than or equal to 500 and less than 200%)
CCCOC(=O)N1c2ccc(F)cc2C(=O)N(C(C)C)S1(=O)=O [Compound 186]	4 (Level 4: growth control rate is greater than or equal to 60% and less than 85%)	–	–	–	0 (Level 0: growth control rate is less than 5%)	0 (Level 0: growth control rate is less than 5%)	0 (Level 0: growth control rate is less than 5%)
CC(C)N1C(=O)c2cc(F)ccc2NS1(=O)=O [Compound 2]	5 (Level 5: growth control rate is above 85%)	3 (Level 3: growth control rate is greater than or equal to 40% and less than 60%)	4 (Level 4: growth control rate is greater than or equal to 60% and less than 85%)	4 (Level 4: growth control rate is greater than or equal to 60% and less than 85%)	1 (Level 1: growth control rate is greater than or equal to 500 and less than 200%)	0 (Level 0: growth control rate is less than 5%)	1 (Level 1: growth control rate is greater than or equal to 500 and less than 200%)
CCOC(=O)OC(C)N1c2c(Br)cc(F)cc2C(=O)N(C(C)C)S1(=O)=O (stereo not drawn) [Compound 155]	5 (Level 5: growth control rate is above 85%)	5 (Level 5: growth control rate is above 85%)	5 (Level 5: growth control rate is above 85%)	5 (Level 5: growth control rate is above 85%)	0 (Level 0: growth control rate is less than 5%)	0 (Level 0: growth control rate is less than 5%)	1 (Level 1: growth control rate is greater than or equal to 500 and less than 200%)
CC(=O)N1c2ccc(F)cc2C(=O)N(C(C)C)S1(=O)=O [Compound 62]	5 (Level 5: growth control rate is above 85%)	–	3 (Level 3: growth control rate is greater than or equal to 40% and less than 60%)	3 (Level 3: growth control rate is greater than or equal to 40% and less than 60%)	0 (Level 0: growth control rate is less than 5%)	0 (Level 0: growth control rate is less than 5%)	0 (Level 0: growth control rate is less than 5%)
COCN1c2ccc(F)cc2C(=O)N(C(C)C)S1(=O)=O [Compound 56]	3 (Level 3: growth control rate is greater than or equal to 40% and less than 60%)	–	–	–	0 (Level 0: growth control rate is less than 5%)	0 (Level 0: growth control rate is less than 5%)	0 (Level 0: growth control rate is less than 5%)
CC(=O)N1c2c(F)cc(F)cc2C(=O)N(C(C)C)S1(=O)=O [Compound 150]	5 (Level 5: growth control rate is above 85%)	5 (Level 5: growth control rate is above 85%)	5 (Level 5: growth control rate is above 85%)	5 (Level 5: growth control rate is above 85%)	1 (Level 1: growth control rate is greater than or equal to 500 and less than 200%)	1 (Level 1: growth control rate is greater than or equal to 500 and less than 200%)	1 (Level 1: growth control rate is greater than or equal to 500 and less than 200%)

From patent publication US12441695B2, “Substituted thiadiazinone dioxide and preparation method therefor, herbicidal composition, and application therefor” (Qingdao Kingagroot Chemical Compound Co., Ltd., priority 2019, dated 2025)
